Assay results from patent US12383653B2, “Neutral multidomain peptide hydrogels and uses thereof” (William Marsh Rice University, priority 2018, dated 2025).
“Also recorded” adds a separate entry of the source. Where a SMILES comes first, the peptide text is derived from it. [ ]: non-standard residue; d: D form. Hyp = O=C(O)[C@@H]1C[C@@H](O)CN1

Experiments:
[1] = Hydrogel formation (inverted-vial test, pH, ionic strength, buffers); type: physicochemical; conditions: for hydrogel formation at acidic, neutral and basic pH: 1% by weight, pH adjusted with HCl or NaOH, inverted-vial test / CD
Experimental: Hydrogel Formation. Peptide solutions of O5 were prepared at 1% by weight (4.2 mM) in 149 mM sucrose and 0.5×HBSS. This buffer system was chosen to be consistent with prior MDP experiments and find optimum gelling conditions for future in vivo and in vitro work. Peptide solutions were sonicated using a Microson Ultrasonic Cell Disruptor with a 2 mm microprobe. The instrument frequency was 22.5 kHz and a power output up to 10 watts (RMS) was used. Solutions were sonicated at room temperature for 1 or 10 cycles, where each cycle consisted of 10 pulses and 1 min relaxation time between cycles. For the study of hydrogelation of O5, K2 and E2 at different pH values and ionic strength, 1% by weight peptide solutions were prepared in deionized water, PBS, or HBSS. pH was adjusted using HCl or NaOH 0.1 M solutions.

[2] = Solubility of peptides in water; type: physicochemical
[3] = Secondary structure estimation from circular dichroism in TFE, least square linear method; type: physicochemical; conditions: TFE at 25° C., 1 wt.%
Experimental: Circular Dichroism (CD) spectroscopy. For secondary structure characterization, peptide solutions of 1% by weight (molar concentration is included in Table 2) were prepared in 2,2,2-trifluoroethanol (TFE, Sigma Aldrich, St. Louis, MO). CD spectra acquisition was performed in a CD Jasco J-810 spectropolarimeter (Jasco Inc., Easton, MD) using a 0.01 mm cuvette. Data were collected at room temperature from 180 to 250 nm at a speed of 50 nm/min, with a 0.1 nm data pitch and the spectra were averaged over 5 scans. To study the hydrogelation of O5, 1% by weight peptide solutions were made in 149 mM sucrose solution in 0.5× Hank's Balanced Salt Solution (HBSS, Life Technologies) and analyzed as previously described.
To estimate the secondary structure of O peptide series, data fitting using the least square linear method was performed in MATLAB (Mathworks, Natick, MA). (Hyp)6, O1(SL)6O1 and K2(SL)6K2 were used as basis spectra for polyproline type II, β-sheet and α-helix, respectively (FIG. 7).

[4] = 3D culture cytocompatibility, Calcein AM / Ethidium homodimer-1 viability and cell morphology; type: cell-based; conditions: mouse; day 1 after encapsulation, 1 wt.% hydrogel; read-out: percentage of viable cells
Experimental: (§1) Cytocompatibility and cell viability studies. All cell culture materials, not otherwise specified, were purchased from Gibco, Life Technologies. NIH-3T3 fibroblast cells were cultured in Dulbecco's Modified Eagle Medium (DMEM) supplemented with 10% Fetal Bovine Serum (FBS), 2% L-glutamine (200 mM), 1% sodium pyruvate (100 mM), and 1% pen-strep solution (5000 units/mL of penicillin and 5 mg/mL of streptomycin, Sigma-Aldrich, St. Louis, MO). Cells were maintained at 37° C. and 5% CO2 with humidity and split when reaching 80%-90% confluency by treatment with 0.25% trypsin-EDTA and neutralization with complete media. Cells were centrifuged for 6 min at 1600 rpm, then the cell pellet was dispersed in HBSS, counted and adjusted to the required concentration. 3D cell culture in K2 hydrogel was achieved by mixing a 2% by weight peptide stock solution in 298 mM sucrose with a cell suspension of 2×10^6 cells/mL in HBSS. The final concentration was 1% by weight K2 hydrogel in 149 mM sucrose and 0.5×HBSS with 1×10^6 cells/mL. For O5 peptide, hydrogel was prepared by sonication using only 90% of the required 149 mM sucrose-0.5×HBSS to obtain a 1% by weight concentration, the remaining 10% was added as a cell suspension, and mixed by pipetting into the gel to obtain a final concentration of 1×10^6 cells/mL evenly distributed though the volume of the hydrogel. 70 μL of seeded hydrogels were cultured in a Lab-Tek 16-well glass chamber ([…], Thermo Fisher, Rochester, NY) with 200 μL of medium and fed every 2 days by replacing 100 μL with fresh media. Cell viability was analyzed using a live/dead viability kit (Invitrogen, Thermo Fisher, Carlsbad, CA). At specific time points, the medium was removed, and gels were rinsed with 1×PBS, then 100 μL of staining solution containing 2 μM Calcein AM and 4 μM Ethidium homodimer-1 in DPBS were added. Cells were incubated from 15 to 30 min and imaged using a Nikon A1 Rsi fluorescent confocal microscope (Nikon Instruments, Tokyo, Japan). Three z-stack images of 100 μm deep per sample were taken at 20× using a 488 nm green channel and 561 nm red channel lasers. Images were processed with NIS Element and live/dead cell counting was performed on Imaris 3D/4D Image Processing software (Bitplane, Concord, MA).
(§2) To evaluate the cell morphology, hydrogels were rinsed with PBS and fixed with 10% buffered formalin for 30 min Cells were treated with 0.5% Triton X for 10 min and 100 mM glycine for 10 min, followed by 10% Bovine Serum Albumin (BSA) in HBSS block solution. Then cells were stained for filamentous actin with Alexa Fluor® 488-Phalloidin and for the nuclei with ProLong® Gold Antifade DAPI mounting media. Cell in the hydrogels were analyzed by confocal microscopy using a 40× water objective and processed as described.

[5] = tested on: NIH-3T3 fibroblasts; experiment: as above; type: cell-based
Experimental: as §1, §2

| Molecule | solubility [2] [µg/mL] | % PPII [3] [%] | % α-helix [3] [%] | % β-sheet [3] [%] | Predominant Structure [3] | other results |
| --- | --- | --- | --- | --- | --- | --- |
| Ac-EESLSLSLSLSLSLEE-NH2 [Peptide E2, Ac-EESLSLSLSLSLSLEE-CONH2, reference compound] |  |  |  |  |  | hydrogel formation at acidic, neutral and basic pH [1]: dependent on pH; also recorded: forms a gel at acidic pH and undergoes phase separation; hydrogel formation at acidic, neutral and basic pH ([1]; listed as E2(SL)6E2): gels only forming at neutral pH or at elevated ionic strength |
| CC(=O)N[C@@H](CCCCN)C(=O)N[C@@H](CCCCN)C(=O)N[C@@H](CO)C(=O)N[C@@H](CC(C)C)C(=O)N[C@@H](CO)C(=O)N[C@@H](CC(C)C)C(=O)N[C@@H](CO)C(=O)N[C@@H](CC(C)C)C(=O)N[C@@H](CO)C(=O)N[C@@H](CC(C)C)C(=O)N[C@@H](CO)C(=O)N[C@@H](CC(C)C)C(=O)N[C@@H](CO)C(=O)N[C@@H](CC(C)C)C(=O)N[C@@H](CCCCN)C(=O)N[C@@H](CCCCN)C(N)=O [Peptide K2, Ac-KKSLSLSLSLSLSLKK-CONH2, reference compound] |  |  |  |  |  | viability at 24 h, 1 % by weight [4]: ~20%; percentage of viable cells ([5]; day 3 compared with day 1): relatively unchanged; cytotoxicity / viability over the culture ([5]; days 1 to 5, 1 wt.% hydrogel): somewhat cytotoxic during the first days of cell culture; cell proliferation / viable cell density in the gel ([5]; up to day 5): by day 5 cell density is significantly higher than days 1 and 3; hydrogel formation at acidic, neutral and basic pH [1]: dependent on pH; also recorded: forms a gel at pH 11; hydrogel formation at acidic, neutral and basic pH ([1]; listed as K2(SL)6K2): gels only forming at neutral pH or at elevated ionic strength |
| CC(=O)N1C[C@H](O)C[C@H]1C(=O)N1C[C@H](O)C[C@H]1C(=O)N1C[C@H](O)C[C@H]1C(=O)N1C[C@H](O)C[C@H]1C(=O)N[C@@H](CO)C(=O)N[C@@H](CC(C)C)C(=O)N[C@@H](CO)C(=O)N[C@@H](CC(C)C)C(=O)N[C@@H](CO)C(=O)N[C@@H](CC(C)C)C(=O)N[C@@H](CO)C(=O)N[C@@H](CC(C)C)C(=O)N[C@@H](CO)C(=O)N[C@@H](CC(C)C)C(=O)N[C@@H](CO)C(=O)N[C@@H](CC(C)C)C(=O)N1C[C@H](O)C[C@H]1C(=O)N1C[C@H](O)C[C@H]1C(=O)N1C[C@H](O)C[C@H]1C(=O)N1C[C@H](O)C[C@H]1C(N)=O [Peptide O4, Ac-OOOOSLSLSLSLSLSLOOOO-CONH2] (Ac-[Hyp][Hyp][Hyp][Hyp]SLSLSLSLSLSL[Hyp][Hyp][Hyp][Hyp]-NH2) | < 500 | 41.8 | 41.2 | 17 | PPII/α-helix |  |
| CC(=O)N1C[C@H](O)C[C@H]1C(=O)N1C[C@H](O)C[C@H]1C(=O)N1C[C@H](O)C[C@H]1C(=O)N1C[C@H](O)C[C@H]1C(=O)N1C[C@H](O)C[C@H]1C(=O)N1C[C@H](O)C[C@H]1C(=O)N[C@@H](CO)C(=O)N[C@@H](CC(C)C)C(=O)N[C@@H](CO)C(=O)N[C@@H](CC(C)C)C(=O)N[C@@H](CO)C(=O)N[C@@H](CC(C)C)C(=O)N[C@@H](CO)C(=O)N[C@@H](CC(C)C)C(=O)N[C@@H](CO)C(=O)N[C@@H](CC(C)C)C(=O)N[C@@H](CO)C(=O)N[C@@H](CC(C)C)C(=O)N1C[C@H](O)C[C@H]1C(=O)N1C[C@H](O)C[C@H]1C(=O)N1C[C@H](O)C[C@H]1C(=O)N1C[C@H](O)C[C@H]1C(=O)N1C[C@H](O)C[C@H]1C(=O)N1C[C@H](O)C[C@H]1C(N)=O [Peptide O6, Ac-OOOOOOSLSLSLSLSLSLOOOOOO-CONH2] (Ac-[Hyp][Hyp][Hyp][Hyp][Hyp][Hyp]SLSLSLSLSLSL[Hyp][Hyp][Hyp][Hyp][Hyp][Hyp]-NH2) |  | 48.5 | 40.2 | 11.4 | PPII | state of the peptide at 10 mg/mL ([1]; 10 mg/mL): viscous solution; hydrogelation in cell culture media ([1]; 1% by weight in 149 mM sucrose and 0.5×HBSS, ultrasonication): dissolves to form a viscous solution |

The next lines start with results.

| solubility [2] [µg/mL] | % PPII [3] [%] | % α-helix [3] [%] | % β-sheet [3] [%] | Predominant Structure [3] | Molecule | other results |
| --- | --- | --- | --- | --- | --- | --- |
| < 500 | 0 | 0 | 100 | β-sheet | CC(=O)N1C[C@H](O)C[C@H]1C(=O)N[C@@H](CO)C(=O)N[C@@H](CC(C)C)C(=O)N[C@@H](CO)C(=O)N[C@@H](CC(C)C)C(=O)N[C@@H](CO)C(=O)N[C@@H](CC(C)C)C(=O)N[C@@H](CO)C(=O)N[C@@H](CC(C)C)C(=O)N[C@@H](CO)C(=O)N[C@@H](CC(C)C)C(=O)N[C@@H](CO)C(=O)N[C@@H](CC(C)C)C(=O)N1C[C@H](O)C[C@H]1C(N)=O [Peptide O1, Ac-OSLSLSLSLSLSLO-CONH2] (Ac-[Hyp]SLSLSLSLSLSL[Hyp]-NH2) |  |
| < 500 | 38.4 | 36.4 | 25.2 | PPII/α-helix | CC(=O)N1C[C@H](O)C[C@H]1C(=O)N1C[C@H](O)C[C@H]1C(=O)N1C[C@H](O)C[C@H]1C(=O)N[C@@H](CO)C(=O)N[C@@H](CC(C)C)C(=O)N[C@@H](CO)C(=O)N[C@@H](CC(C)C)C(=O)N[C@@H](CO)C(=O)N[C@@H](CC(C)C)C(=O)N[C@@H](CO)C(=O)N[C@@H](CC(C)C)C(=O)N[C@@H](CO)C(=O)N[C@@H](CC(C)C)C(=O)N[C@@H](CO)C(=O)N[C@@H](CC(C)C)C(=O)N1C[C@H](O)C[C@H]1C(=O)N1C[C@H](O)C[C@H]1C(=O)N1C[C@H](O)C[C@H]1C(N)=O [Peptide O3, Ac-OOOSLSLSLSLSLSLOOO-CONH2] (Ac-[Hyp][Hyp][Hyp]SLSLSLSLSLSL[Hyp][Hyp][Hyp]-NH2) |  |
| < 500 | 29.3 | 41.9 | 28.8 | α-helix | CC(=O)N1C[C@H](O)C[C@H]1C(=O)N1C[C@H](O)C[C@H]1C(=O)N[C@@H](CO)C(=O)N[C@@H](CC(C)C)C(=O)N[C@@H](CO)C(=O)N[C@@H](CC(C)C)C(=O)N[C@@H](CO)C(=O)N[C@@H](CC(C)C)C(=O)N[C@@H](CO)C(=O)N[C@@H](CC(C)C)C(=O)N[C@@H](CO)C(=O)N[C@@H](CC(C)C)C(=O)N[C@@H](CO)C(=O)N[C@@H](CC(C)C)C(=O)N1C[C@H](O)C[C@H]1C(=O)N1C[C@H](O)C[C@H]1C(N)=O [Peptide O2, Ac-OOSLSLSLSLSLSLOO-CONH2] (Ac-[Hyp][Hyp]SLSLSLSLSLSL[Hyp][Hyp]-NH2) |  |
